In US20240158446A1, “CYCLIC COMPOUND HAVING SELECTIVE INHIBITORY ACTION ON KRAS OVER HRAS AND NRAS” (CHUGAI SEIYAKU KABUSHIKI KAISHA, priority 2021, published 2024):
pIC50: −log10 of the molar value. Where two headings read alike, the source gives them in different places. Where a SMILES comes first, the peptide text is derived from it. Bridges are numbered along the chain shown (N, C = ends). [ ]: non-standard residue; d: D form. The star is where a group is joined. hPhe(3-Cl-4-CF3) = N[C@@H](CCc1ccc(C(F)(F)F)c(Cl)c1)C(=O)O; NPrPhe(4-CF3) = CCCN[C@@H](Cc1ccc(C(F)(F)F)cc1)C(=O)O; NMeGly(cPent) = CN[C@H](C(=O)O)C1CCCC1; Pro(4,4-F2) = O=C(O)[C@@H]1CC(F)(F)CN1; NMeD = CN[C@@H](CC(=O)O)C(=O)O; NMeL = CN[C@@H](CC(C)C)C(=O)O; Morpholide = C1CN(*)CCO1; Aze = O=C(O)[C@@H]1CCN1; Ac4c = NC1(C(=O)O)CCC1; Sar = CNCC(=O)O

Legend:
[1] = system: human lung cancer strain NCI-H441;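 further: cell proliferation inhibition after four days measured by CellTiter-Glo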
[2] = biological target: GDP-bound HRAS wild-type protein (Homo sapiens, UniProt P01112); experiment: Binding to HRAS by surface plasmon resonance (SPR), Single Cycle Kinetics; details: SPR; for HRAS/KRAS (ratio of KD value for HRAS to KD value for KRAS) / HRAS/KRAS (ratio of KD value with respect to HRAS to KD value with respect to KRAS): GDP-bound HRAS wild-type protein vs GDP-bound KRAS wild-type protein
[3] = biological target: GDP-bound NRAS wild-type protein (Homo sapiens, UniProt P01111); experiment: Binding to NRAS by surface plasmon resonance (SPR), Single Cycle Kinetics; details: SPR; for NRAS/KRAS (ratio of KD value for NRAS to KD value for KRAS) / NRAS/KRAS (ratio of KD value with respect to NRAS to KD value with respect to KRAS): GDP-bound NRAS wild-type protein vs GDP-bound KRAS wild-type protein
[4] = read-out: NCI-H441 cell proliferation inhibitory activity, 50% proliferation inhibitory concentration (IC50 value), NCI-H441, four days, CellTiter-Glo

Chain of GDP-bound HRAS wild-type protein (P01112 whole entry): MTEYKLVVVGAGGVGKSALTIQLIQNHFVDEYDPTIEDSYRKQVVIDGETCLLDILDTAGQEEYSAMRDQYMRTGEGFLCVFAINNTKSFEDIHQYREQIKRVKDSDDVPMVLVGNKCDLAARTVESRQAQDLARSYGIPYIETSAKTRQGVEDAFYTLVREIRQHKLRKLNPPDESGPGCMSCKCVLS
Chain of GDP-bound NRAS wild-type protein (P01111 whole entry): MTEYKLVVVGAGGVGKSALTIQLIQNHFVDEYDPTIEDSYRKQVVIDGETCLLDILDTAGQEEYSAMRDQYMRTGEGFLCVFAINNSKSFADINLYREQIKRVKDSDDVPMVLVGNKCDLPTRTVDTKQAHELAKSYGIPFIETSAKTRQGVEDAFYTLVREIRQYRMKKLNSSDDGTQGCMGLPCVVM

pIC50 [1] | SMILES | pIC50 [1, 4] | HRAS/KRAS (ratio of KD value for HRAS to KD value for KRAS) [2] | ratio of the KD value with respect to GDP-bound HRAS wild-type protein to the KD value with respect to KRAS [2] | NRAS/KRAS (ratio of KD value for NRAS to KD value for KRAS) [3] | ratio of the KD value with respect to GDP-bound NRAS wild-type protein to the KD value with respect to KRAS [3] | HRAS/KRAS (ratio of KD value with respect to HRAS to KD value with respect to KRAS) [2] | NRAS/KRAS (ratio of KD value with respect to NRAS to KD value with respect to KRAS) [3]
 | CCO[C@@H]1C[C@H]2C(=O)N(C)C3(CC(C)(C)C3)C(=O)N(C)[C@@H](C3CCCC3)C(=O)N(C)[C@H](C(=O)N(C)C)CC(=O)N(C)[C@H]3CCCCCc4ccc(cc4)C[C@@H](C(=O)N(C)CC(=O)N[C@@H](CCc4ccc(C(F)(F)F)c(OC)c4)C(=O)N2C1)N1CC/C=C\C[C@@H](C1=O)N(C)C(=O)CN(C)C(=O)[C@H]([C@@H](C)CC)NC3=O [PP3091] | 8.92 | B (a compound having 3 or more and less than 10 is denoted as B) | B (a compound having 3 or more and less than 10 is denoted as B) | A (a compound having 10 or more and less than 20 is denoted as A) | A (a compound having 10 or more and less than 20 is denoted as A) |  | 
7.66 | CCCN1C(=O)CN(C)C(=O)[C@@H]2CCN2C(=O)[C@H]([C@@H](C)CC)NC(=O)[C@H](CC(C)C)N(C)C(=O)C[C@@H](C(=O)N2CCOCC2)N(C)C(=O)[C@H](C2CCCC2)N(C)C(=O)C2(CCC2)NC(=O)[C@@H]2CC(F)(F)CN2C(=O)[C@H](CCc2ccc(C(F)(F)F)c(Cl)c2)NC(=O)CN(C)C(=O)[C@@H]1Cc1ccc(C(F)(F)F)cc1 [PP0404] ([NMeL]I[Aze][Sar][NPrPhe(4-CF3)][Sar][hPhe(3-Cl-4-CF3)][Pro(4,4-F2)][Ac4c][NMeGly(cPent)][NMeD]-Morpholide; lactam N-11) |  | C (A compound having a KD ratio of 0.1 or more and less than 3 is denoted as C) |  | B (a compound having 3 or more and less than 10 is denoted as B) |  |  | 
7.05 | CC[C@H](C)[C@@H]1NC(=O)[C@H](CC(C)C)N(C)C(=O)C[C@@H](C(=O)N2CCOCC2)N(C)C(=O)[C@H](C2CCCC2)N(C)C(=O)C2(CCCC2)NC(=O)[C@@H]2CCCN2C(=O)[C@H](CCc2ccc(C(F)(F)F)c(Cl)c2)NC(=O)CN(C)C(=O)[C@H](Cc2ccccc2)N2CCCCC[C@@H](C2=O)N(C)C(=O)CN(C)C1=O [PP0611] |  |  |  |  |  | B (a compound having 3 or more and less than 10 is denoted as B) | B (a compound having 3 or more and less than 10 is denoted as B)
 | CCC[C@H]1C(=O)N[C@@H]([C@@H](C)CC)C(=O)N(C2CC2)CC(=O)N(C)[C@H]2C/C=C\CCN(C2=O)[C@@H](Cc2ccc(C)cc2)C(=O)N(C)CC(=O)N[C@@H](CCc2cc(F)c(C(F)(F)F)c(F)c2)C(=O)N2C[C@H](OCC)C[C@H]2C(=O)N(C)C2(CCC2)C(=O)N(C)[C@@H](C2CCCC2)C(=O)N(C)[C@H](C(=O)N2CCCCC2)CC(=O)N1C [PP3111, (2S,8S,12R,14S,20S,23S,27S,30S,36S,38Z)-20-cyclopentyl-32-cyclopropyl-8-[2-[3,5-difluoro-4-(trifluoromethyl)phenyl]ethyl]-12-ethoxy-4,16,19,22,26,35-hexamethyl-30-[(1S)-1-methylpropyl]-23-(piperidine-1-carbonyl)-27-propyl-2-(p-tolylmethyl)spiro[1,4,7,1016192226293235-undecazatricyclo[34.5.1.0^10,14]dotetracont-38-ene-17,1′-cyclobutane]-3,6,9,15,18,21,25,28,31,34,42-undecone] | 7.75 | A (a compound having 10 or more and less than 20 is denoted as A) | A (a compound having 10 or more and less than 20 is denoted as A) | A (a compound having 10 or more and less than 20 is denoted as A) | A (a compound having 10 or more and less than 20 is denoted as A) |  | 
8.19 | CC[C@H](C)[C@@H]1NC(=O)[C@H](CC(C)C)N(C)C(=O)C[C@@H](C(=O)N2CCOCC2)N(C)C(=O)[C@H](C2CCCC2)N(C)C(=O)C2(CCCC2)NC(=O)[C@@H]2CCCN2C(=O)[C@H](CCc2ccc(C(F)(F)F)c(Cl)c2)NC(=O)CN(C)C(=O)[C@H](Cc2ccccc2)N2CCCC[C@@H](C2=O)N(C)C(=O)CN(C)C1=O [PP0529] |  |  |  |  |  | B (a compound having 3 or more and less than 10 is denoted as B) | C (A compound having a KD ratio of 0.1 or more and less than 3 is denoted as C)
7.36 | CCO[C@@H]1C[C@H]2C(=O)NC3(CCC3)C(=O)N(C)[C@@H](C3CCCC3)C(=O)N(C)[C@H](C(=O)N3CCOCC3)CC(=O)N(C)[C@@H](Cc3ccccc3)C(=O)N[C@@H]([C@@H](C)CC)C(=O)N(C)CC(=O)N(C)[C@H]3CCCCCN(C3=O)[C@@H](Cc3ccc(C(F)(F)F)cc3)C(=O)N(C)CC(=O)N[C@@H](CCc3cc(F)c(C(F)(F)F)c(F)c3)C(=O)N2C1 [PP0687] |  |  |  |  |  | B (a compound having 3 or more and less than 10 is denoted as B) | B (a compound having 3 or more and less than 10 is denoted as B)
